System: Culex quinquefasciatus (metabolic-resistant to DDT; strain P00)
Test: Glazed tile contact test, knock-down
Assay type: in vivo
Method: To produce a suitable preparation Transfluthrin was dissolved in acetone. The active compound solution was pipetted onto a glazed tile and, after drying, adult mosquitoes of the species: • Anopheles gambiae (target-site-resistant and metabolic-resistant strain: RSPH), • Anopheles gambiae (target-site-resitant and metabolic-resistant strain: Tiassalé), • Anopheles gambiae (tar et-site-resitant and metabolic-resistant strain: Akron), • Anopheles gambiae (target-site-resistant strain: VK7), and • Anopheles funestus (metabolic-resistant strain FUMOZ-R) were placed onto the treated tile (each strain was tested on separate tiles). The exposition time was 30 minutes.
Similarly as outlined in example 2 for Transfluthrin, Metofluthrin efficacy was assessed against • Anopheles gambiae (target-site-resistant and metabolic-resistant strain: RSPH), • Anopheles funestus (metabolic-resistant strain FUMOZ-R), and • Culex quinquefasciatus (metabolic-resistant to DDT; strain P00), with the results shown in Tables 10 to 12. 0.25 hours, 0.5 hours, 1 hour, 2 hour, 3 hour, 4 hour and 24 hours after contact to the treated surface, the knock-down proportion of the test animals in % is depicted in Tables 10 to 12. 100% (effect) means that all mosquitoes have been killed; 0% (effect) means that none of the mosquitoes have been killed.

Work on `CC=CC1C(C(=O)OCc2c(F)c(F)c(COC)c(F)c2F)C1(C)C` (stereo not shown) [Metofluthrin, 2,3,5,6-Tetrafluoro-4-(methoxymethyl)benzyl 2,2-dimethyl-3-(prop-1-en-1-yl)cyclopropanecarboxylate] yielded an Effect % (0.064 /ha, 0.25 h after contact) of 0%, an Effect % (0.064 /ha, 0.5 h after contact) of 0% and an Effect % (0.064 /ha, 1 h after contact) of 0%. For the same molecule, the Effect % (0.064 /ha, 2 h after contact) was 0%, the Effect % (0.064 /ha, 3 h after contact) was 0% and the Effect % (0.064 /ha, 4 h after contact) was 0%. It also gave an Effect % (0.064 /ha, 24 h after contact) of 0%, an Effect % (0.32 /ha, 0.25 h after contact) of 0% and an Effect % (0.32 /ha, 0.5 h after contact) of 0%. It also gave an Effect % (0.32 /ha, 1 h after contact) of 0%, an Effect % (0.32 /ha, 2 h after contact) of 0% and an Effect % (0.32 /ha, 3 h after contact) of 0%. For the same molecule, the Effect % (0.32 /ha, 4 h after contact) was 0%, the Effect % (0.32 /ha, 24 h after contact) was 10% and the Effect % (1.6 /ha, 0.25 h after contact) was 90%. For the same molecule, the Effect % (1.6 /ha, 0.5 h after contact) was 100%, the Effect % (1.6 /ha, 1 h after contact) was 100% and the Effect % (1.6 /ha, 2 h after contact) was 100%. The Effect % (1.6 /ha, 3 h after contact) was 100%, the Effect % (1.6 /ha, 4 h after contact) was 100% and the Effect % (1.6 /ha, 24 h after contact) was 100%. It also gave an Effect % (8 /ha, 0.25 h after contact) of 100%, an Effect % (8 /ha, 0.5 h after contact) of 100% and an Effect % (8 /ha, 1 h after contact) of 100%. It also gave an Effect % (8 /ha, 2 h after contact) of 100%, an Effect % (8 /ha, 3 h after contact) of 100% and an Effect % (8 /ha, 4 h after contact) of 100%. For the same molecule, the Effect % (8 /ha, 24 h after contact) was 100%, the Effect % (40 /ha, 0.25 h after contact) was 100% and the Effect % (40 /ha, 0.5 h after contact) was 100%. For the same molecule, the Effect % (40 /ha, 1 h after contact) was 100%, the Effect % (40 /ha, 2 h after contact) was 100% and the Effect % (40 /ha, 3 h after contact) was 100%. It also gave an Effect % (40 /ha, 4 h after contact) of 100%, an Effect % (40 /ha, 24 h after contact) of 100% and an Effect % (200 /ha, 0.25 h after contact) of 100%. The Effect % (200 /ha, 0.5 h after contact) was 100%, the Effect % (200 /ha, 1 h after contact) was 100% and the Effect % (200 /ha, 2 h after contact) was 100%. For the same molecule, the Effect % (200 /ha, 3 h after contact) was 100%, the Effect % (200 /ha, 4 h after contact) was 100% and the Effect % (200 /ha, 24 h after contact) was 100%. It also gave an Effect % (1000 /ha, 0.25 h after contact) of 100%, an Effect % (1000 /ha, 0.5 h after contact) of 100% and an Effect % (1000 /ha, 1 h after contact) of 100%. It also gave an Effect % (1000 /ha, 2 h after contact) of 100%, an Effect % (1000 /ha, 3 h after contact) of 100% and an Effect % (1000 /ha, 4 h after contact) of 100%. For the same molecule, the Effect % (1000 /ha, 24 h after contact) was 100%.

From US20150289513A1, “USE OF A COMPOUND COMPRISING A POLYFLUOROBENZYL MOIETY AGAINST INSECTICIDE-RESISTANT PESTS” (priority 2012, published 2015)
